Experimental data as given in ChEMBL document CHEMBL5500371, “Arginine and tryptophan-rich dendritic antimicrobial peptides that disrupt membranes for bacterial infection in vivo” (Eur J Med Chem, 2024).
Values after ≈ are worked out from the molar mass of the structure shown. Active and inactive are the calls of the source. The rule behind the calls is not given here. Where a SMILES comes first, the peptide text is derived from it. Side-chain parts run from the residue outwards.

Tests used:
[1] = tested on: Staphylococcus aureus; assay: Antibacterial activity against Staphylococcus aureus ATCC 25923 assessed as inhibition of bacterial growth incubated for 20 hrs by broth microdilution method; format: functional
[2] = tested on: Bacillus subtilis; assay: Antibacterial activity against Bacillus subtilis ATCC 23857 assessed as inhibition of bacterial growth incubated for 20 hrs by broth microdilution method; format: functional
[3] = tested on: Acinetobacter baumannii; assay: Antibacterial activity against Acinetobacter baumannii ATCC 19606 assessed as inhibition of bacterial growth incubated for 20 hrs by broth microdilution method; format: functional
[4] = tested on: Klebsiella pneumoniae; assay: Antibacterial activity against Klebsiella pneumoniae ATCC 700603 assessed as inhibition of bacterial growth incubated for 20 hrs by broth microdilution method; format: functional
[5] = tested on: Escherichia coli; assay: Antibacterial activity against Escherichia coli ATCC 25922 assessed as inhibition of bacterial growth incubated for 20 hrs by broth microdilution method; format: functional
[6] = tested on: Pseudomonas aeruginosa; assay: Antibacterial activity against Pseudomonas aeruginosa ATCC 27853 assessed as inhibition of bacterial growth incubated for 20 hrs by broth microdilution method; format: functional
[7] = tested on: Erythrocyte; assay: Hemolytic activity in mouse erythrocytes assessed as 10% hemolysis incubated for 1 hr by absorbance based analysis; format: toxicity, cell-based
[8] = Cytotoxicity against HEK293T cells assessed as cell death measured after 1 hr by resazurin dye based analysis; format: toxicity, HEK-293T; details: human, HEK293T cells
[9] = tested on: Escherichia coli; assay: Antibacterial activity against Escherichia coli ATCC 25922 assessed as inhibition of bacterial growth incubated for 20 hrs in presence of NaCl by broth microdilution method (reference value: 16 microM); format: functional
[10] = tested on: Escherichia coli; assay: Antibacterial activity against Escherichia coli ATCC 25922 assessed as inhibition of bacterial growth incubated for 20 hrs in presence of KCl by broth microdilution method (reference value: 16 microM); format: functional
[11] = tested on: Escherichia coli; assay: Antibacterial activity against Escherichia coli ATCC 25922 assessed as inhibition of bacterial growth incubated for 20 hrs in presence of MgCl2 by broth microdilution method (reference value: 16 microM); format: functional
[12] = tested on: Escherichia coli; assay: Antibacterial activity against Escherichia coli ATCC 25922 assessed as inhibition of bacterial growth incubated for 20 hrs in presence of FeCl3 by broth microdilution method (reference value: 16 microM); format: functional
[13] = tested on: Escherichia coli; assay: Antibacterial activity against Escherichia coli ATCC 25922 assessed as inhibition of bacterial growth incubated for 20 hrs in presence of ZnCl2 by broth microdilution method (reference value: 16 microM); format: functional
[14] = tested on: Staphylococcus aureus; assay: Antibacterial activity against Staphylococcus aureus ATCC 25923 assessed as inhibition of bacterial growth incubated for 20 hrs in presence of NaCl by broth microdilution method (reference value: 8 microM); format: functional
[15] = tested on: Staphylococcus aureus; assay: Antibacterial activity against Staphylococcus aureus ATCC 25923 assessed as inhibition of bacterial growth incubated for 20 hrs in presence of KCl by broth microdilution method (reference value: 8 microM); format: functional
[16] = tested on: Staphylococcus aureus; assay: Antibacterial activity against Staphylococcus aureus ATCC 25923 assessed as inhibition of bacterial growth incubated for 20 hrs in presence of MgCl2 by broth microdilution method (reference value: 8 microM); format: functional
[17] = tested on: Staphylococcus aureus; assay: Antibacterial activity against Staphylococcus aureus ATCC 25923 assessed as inhibition of bacterial growth incubated for 20 hrs in presence of FeCl3 by broth microdilution method (reference value: 8 microM); format: functional
[18] = tested on: Staphylococcus aureus; assay: Antibacterial activity against Staphylococcus aureus ATCC 25923 assessed as inhibition of bacterial growth incubated for 20 hrs in presence of ZnCl2 by broth microdilution method (reference value: 8 microM); format: functional
[19] = tested on: Staphylococcus aureus; assay: Antibacterial activity against Staphylococcus aureus ATCC 25923 assessed as inhibition of bacterial growth by measuring fold increase in MIC incubated for 20 hrs in presence of NaCl by broth microdilution method relative to control; format: functional
[20] = tested on: Staphylococcus aureus; assay: Antibacterial activity against Staphylococcus aureus ATCC 25923 assessed as inhibition of bacterial growth by measuring fold increase in MIC incubated for 20 hrs in presence of KCl by broth microdilution method relative to control; format: functional
[21] = tested on: Staphylococcus aureus; assay: Antibacterial activity against Staphylococcus aureus ATCC 25923 assessed as inhibition of bacterial growth by measuring fold increase in MIC incubated for 20 hrs in presence of MgCl2 by broth microdilution method relative to control; format: functional
[22] = tested on: Staphylococcus aureus; assay: Antibacterial activity against Staphylococcus aureus ATCC 25923 assessed as inhibition of bacterial growth by measuring fold increase in MIC incubated for 20 hrs in presence of FeCl3 by broth microdilution method relative to control; format: functional
[23] = tested on: Staphylococcus aureus; assay: Antibacterial activity against Staphylococcus aureus ATCC 25923 assessed as inhibition of bacterial growth by measuring fold increase in MIC incubated for 20 hrs in presence of ZnCl2 by broth microdilution method relative to control; format: functional
[24] = tested on: Escherichia coli; assay: Antibacterial activity against Escherichia coli ATCC 25922 assessed as inhibition of bacterial growth preincubated with 10% mouse serum for 1 hr and measured after 20 hrs by broth microdilution method; format: functional; details: time 21 hrs
[25] = tested on: Escherichia coli; assay: Antibacterial activity against Escherichia coli ATCC 25922 assessed as inhibition of bacterial growth preincubated with 10% mouse serum for 6 hrs and measured after 20 hrs by broth microdilution method; format: functional; details: time 26 hrs
[26] = Therapeutic index, ratio of MHC10 for hemolytic activity in mouse erythrocytes preincubated with 10% mouse serum for 1 hr to MIC for Escherichia coli ATCC 25922 preincubated with 10% mouse serum for 1 hr; format: toxicity, cell-based; details: mouse erythrocytes, read-out: TI
[27] = Therapeutic index, ratio of MHC10 for hemolytic activity in mouse erythrocytes preincubated with 10% mouse serum for 6 hrs to MIC for Escherichia coli ATCC 25922 preincubated with 10% mouse serum for 6 hrs; format: toxicity, cell-based; details: mouse erythrocytes, read-out: TI
[28] = tested on: Staphylococcus aureus; assay: Antibacterial activity against Staphylococcus aureus ATCC 25923 assessed as inhibition of bacterial growth preincubated with 10% mouse serum for 1 hr and measured after 20 hrs by broth microdilution method; format: functional; details: time 21 hrs
[29] = tested on: Staphylococcus aureus; assay: Antibacterial activity against Staphylococcus aureus ATCC 25923 assessed as inhibition of bacterial growth preincubated with 10% mouse serum for 6 hrs and measured after 20 hrs by broth microdilution method; format: functional; details: time 21 hrs
[30] = Therapeutic index, ratio of MHC10 for hemolytic activity in mouse erythrocytes preincubated with 10% mouse serum for 1 hr to MIC for Staphylococcus aureus ATCC 25923 preincubated with 10% mouse serum for 1 hr; format: toxicity, cell-based; details: mouse erythrocytes, read-out: TI
[31] = Therapeutic index, ratio of MHC10 for hemolytic activity in mouse erythrocytes preincubated with 10% mouse serum for 6 hrs to MIC for Staphylococcus aureus ATCC 25923 preincubated with 10% mouse serum for 6 hrs; format: toxicity, cell-based; details: mouse erythrocytes, read-out: TI
[32] = Hemolytic activity in mouse erythrocytes at 256 uM preincubated for 1 to 6 hr with 10% mouse serum and measured after 1 hr by absorbance based analysis; format: toxicity, cell-based, Erythrocyte; details: time 1-7 hrs, read-out: Activity
[33] = Stability in mouse serum assessed as half life at 10 mM measured upto 24 hrs by RP-HPLC analysis; format: ADME, cell-free
[34] = tested on: Escherichia coli; assay: Resistant development in Escherichia coli assessed as increase in MIC at sub-MIC measured after 20 passages; format: functional, organism-based
[35] = tested on: Escherichia coli; assay: Drug resistance, ratio of MIC for Escherichia coli after 14 to 19 passages to MIC for Escherichia coli after initial exposure; format: functional, organism-based
[36] = tested on: Staphylococcus aureus; assay: Drug resistance, ratio of MIC for Staphylococcus aureus after 14 to 19 passages to MIC for Staphylococcus aureus after initial exposure; format: functional, organism-based
[37] = tested on: Escherichia coli; assay: Antibacterial activity against Escherichia coli ATCC 25922 assessed as inhibition of bacterial growth incubated for 20 hrs in presence of NaCl by broth microdilution method (reference value: 8 microM); format: functional
[38] = tested on: Escherichia coli; assay: Antibacterial activity against Escherichia coli ATCC 25922 assessed as inhibition of bacterial growth incubated for 20 hrs in presence of KCl by broth microdilution method (reference value: 8 microM); format: functional
[39] = tested on: Escherichia coli; assay: Antibacterial activity against Escherichia coli ATCC 25922 assessed as inhibition of bacterial growth incubated for 20 hrs in presence of MgCl2 by broth microdilution method (reference value: 8 microM); format: functional
[40] = tested on: Escherichia coli; assay: Antibacterial activity against Escherichia coli ATCC 25922 assessed as inhibition of bacterial growth incubated for 20 hrs in presence of FeCl3 by broth microdilution method (reference value: 8 microM); format: functional
[41] = tested on: Escherichia coli; assay: Antibacterial activity against Escherichia coli ATCC 25922 assessed as inhibition of bacterial growth incubated for 20 hrs in presence of ZnCl2 by broth microdilution method (reference value: 8 microM); format: functional

| Compound | MIC [1] [µM] | MIC [2] [µM] | MIC [3] [µM] | MIC [4] [µM] | MIC [5] [µM] | MIC [6] [µM] | MHC10 [7] [µM] | CC50 at 1 h [8] [µM] | MIC [14] [µM] | MIC [15] [µM] | MIC [16] [µM] | MIC [17] [µM] | MIC [18] [µM] | fold change (FC) [19] | fold change (FC) [20] | fold change (FC) [21] | fold change (FC) [22] | fold change (FC) [23] | MIC [24] [µM] | MIC [25] [µM] | also measured |
| --- | --- | --- | --- | --- | --- | --- | --- | --- | --- | --- | --- | --- | --- | --- | --- | --- | --- | --- | --- | --- | --- |
| H-WWWWKRRRR-NH2 | 8 | 8 | 32 | 64 | 32 | 8 | > 256 | > 128 | 8 | 8 | 8 | 8 | 8 | <=2 | <=2 | <=2 | <=2 | <=2 | 2 | 8 | MIC [9]: 32 µM; MIC [10]: 8 µM; MIC [11]: 8 µM; MIC [12]: 16 µM; MIC [13]: 16 µM; selectivity ratio [26]: 0.5; selectivity ratio [27]: 0.13; MIC [28]: 2 µM; MIC [29]: 8 µM; selectivity ratio [30]: 0.5; selectivity ratio [31]: 0.13; hemolysis at 1 h, 256 µM [32]: < 10%; half-life at 10000 µM [33]: 85.3 min |
| GENTAMICIN | – | – | – | – | – | – | – | – | – | – | – | – | – | – | – | – | – | – | – | – | Activity [34]: Active; Ratio [35]: 32; Ratio [36]: 32 |
| N=C(N)NCCC[C@H](NC(=O)[C@H](CCCNC(=N)N)NC(=O)[C@H](CCCNC(=N)N)NC(=O)[C@H](CCCNC(=N)N)NC(=O)[C@H](CCCCNC(=O)[C@H](Cc1c[nH]c2ccccc12)NC(=O)[C@@H](N)Cc1c[nH]c2ccccc12)NC(=O)[C@H](Cc1c[nH]c2ccccc12)NC(=O)[C@@H](N)Cc1c[nH]c2ccccc12)C(N)=O (H-WWK([Trp-Trp])RRRR-NH2) | 8 (≈ 12.1 µg/mL) | 8 (≈ 12.1 µg/mL) | 64 (≈ 96.9 µg/mL) | 128 (≈ 194 µg/mL) | 8 (≈ 12.1 µg/mL) | 32 (≈ 48.5 µg/mL) | > 256 | > 128 | 8 | 8 | 8 | 8 | 8 | <=2 | <=2 | <=2 | <=2 | <=2 | 2 (≈ 3.03 µg/mL) | 16 (≈ 24.2 µg/mL) | MIC [37]: 16 µM; MIC [38]: 8 µM; MIC [39]: 8 µM; MIC [40]: 8 µM; MIC [41]: 8 µM; selectivity ratio [26]: 0.5; selectivity ratio [27]: 0.06; MIC [28]: 2 µM (≈ 3.03 µg/mL); MIC [29]: 8 µM (≈ 12.1 µg/mL); selectivity ratio [30]: 0.5; selectivity ratio [31]: 0.13; hemolysis at 1 h, 256 µM [32]: < 10%; half-life at 10000 µM [33]: 32.4 min |
| H-RRRRKWWWWW-NH2 | 8 | 4 | 32 | 16 | 8 | 32 | 45.69 | 63.6 | – | – | – | – | – | – | – | – | – | – | – | – | – |
| N=C(N)NCCC[C@H](NC(=O)[C@@H](N)CCCNC(=N)N)C(=O)N[C@@H](CCCCN)C(=O)N[C@@H](Cc1c[nH]c2ccccc12)C(N)=O (H-RRKW-NH2) | > 128 | > 128 | > 128 | > 128 | > 128 | > 128 | > 256 | > 128 | – | – | – | – | – | – | – | – | – | – | – | – | – |
| CO[C@H]1/C=C/O[C@@]2(C)Oc3c(C)c(O)c4c(O)c(c(/C=N/N5CCN(C)CC5)c(O)c4c3C2=O)NC(=O)/C(C)=C\C=C\[C@H](C)[C@H](O)[C@@H](C)[C@@H](O)[C@@H](C)[C@H](OC(C)=O)[C@@H]1C [RIFAMPIN] | < 1 | < 1 | < 1 | 32 (≈ 26.3 µg/mL) | 4 (≈ 3.29 µg/mL) | 32 (≈ 26.3 µg/mL) | – | – | – | – | – | – | – | – | – | – | – | – | – | – | Activity [34]: Active |
